Data: PMC12261219, “Comparative Evaluation of Thiol- and Amine-Conjugating Moieties for Endogenous Albumin Binding after Intravenous Administration” (ACS Pharmacology & Translational Science, 2025)

What was measured:
[1] = Reduction with ascorbic acid, release of oxaliplatin (HPLC); format: physicochemical; conditions: 0.5 mM, 150 mM PB, pH 7.4, 20 °C, 30 eq. ascorbic acid
Procedure: The samples were incubated at 20 °C and measured over 25 h. […] RP-HPLC runs were performed using a Waters Acquity UPLC HSS T3 column (100 Å, 1.8 μm, 3.0 mm × 50 mm) on a Dionex Thermo Scientific UltiMate 3000 HPLC system, equipped with a HPG-3400RS binary pump and a DAD-3000RS UV–vis detector. Chromatograms were evaluated at a wavelength of 230 nm. Milli-Q water (mobile phase A) and acetonitrile (mobile phase B), both containing 0.1% TFA, were used as eluents. The flow rate was consistent at 0.6 mL/min for all measurements using the following gradient: 0–0.5 min A 99:1 B, 0.5–5.5 min linear gradient to A 1:99 B, 5.5–6.5 min A 1:99 B, 6.5–9.2 min A 99:1 B.

CT26 colon cancer cells = conditions: i.v.
Procedure: CT26 cells (5 × 10^5 in serum-free medium) were injected s.c. into the right flank of male Balb/c mice. […] 0.9% NaCl served as solvent control. Animals were controlled for distress development every day and tumor size was assessed regularly by caliper measurement. Tumor volume was calculated using the formula: (length × width^2)/2. In the overall survival experiments, mice were sacrificed by cervical dislocation in the case of a tumor length >20 mm, tumor ulceration or body weight loss >20%.

[2] = equimolar to 9 mg/kg oxaliplatin, days 4, 8, 12

| SMILES | Oxaliplatin detected (released) after 25 h [1] [%] | Impact on tumor growth (CT26 colon cancer cells; [2]) | Increase of overall survival compared to solvent control (CT26 colon cancer cells; [2]) [%] | Prolonged overall survival compared to solvent-treated animals (CT26 colon cancer cells; [2]) | Tolerability (body weight) (CT26 colon cancer cells; three administrations over 2 weeks (days 4, 8, 12)) |
| --- | --- | --- | --- | --- | --- |
| CC(=O)[O][Pt-2]12([O]C(=O)NCCOCCOCCOCCOCCN3C(=O)C=CC3=O)([NH2+][C@@H]3CCCC[C@H]3[NH2+]1)[O]C(=O)C(=O)[O]2 [Mal-Ox-OAc, (OC-6–34)-Acetato[(1R,2R)-1,2-cyclohexane-1,2-diamino][ (14-(2,5-dioxo-2,5-dihydro-1H-pyrrol-1-yl)-3,6,9,12-tetraoxatetradecyl)-carbamato]-oxalato platinum(IV)] | 18 | distinctly reduced tumor growth | ~50 | about 10 days | – |
| CC(=O)[O][Pt-2]12([O]C(=O)NCCOCCOCCOCCOC(=O)C3=CCCCC3S(=O)(=O)Nc3ccc(F)cc3F)([NH2+]C3CCCCC3[NH2+]1)[O]C(=O)C(=O)[O]2 (mixture of isomers) [DFSA-Ox-OAc, (OC-6–34)-Acetato[(1R,2R)-1,2-cyclohexane-1,2-diamino][(1-(6-(N-(2,4-difluorophenyl)-sulfamoyl)-cyclohex-1-en-1-yl)-1-oxo-2,5,8,11-tetraoxatridecan-13-yl)-carbamato]-oxalato platinum(IV)] | 10 | – | – | – | – |
| CC(=O)[O][Pt-2]12([O]C(=O)NCCOCCOCCOCCOc3ccc(-c4nnc(S(C)(=O)=O)o4)cc3)([NH2+][C@@H]3CCCC[C@H]3[NH2+]1)[O]C(=O)C(=O)[O]2 [PODS-Ox-OAc, (OC-6–34)-Acetato[(1R,2R)-1,2-cyclohexane-1,2-diamino][(2-(2-(2-(2-(4-(5-(methylsulfonyl)-1,3,4-oxadiazol-2-yl)-phenoxy)-ethoxy)-ethoxy)-ethoxy)-ethyl)-carbamato]-oxalato platinum(IV)] | 9 | slight remission or stable disease | ~80 | – | well-tolerated |
